One compound from patent US4980357A, “Azolidinedione derivatives” (Pfizer Inc., priority 1990, dated 1990) can be followed below.

Experiment [1] relates to sorbitol accumulation in the lens. Description: inhibition of sorbitol accumulation in the lens of streptozotocinized (diabetic) rats. Format: in vivo, rat. Particulars: oral, 0.1-10.0 mg./kg., in words. On the procedure:
(§1) The activity of the compounds of the present invention, as agents for the control of chronic diabetic complications, is determined by their ability to successfully pass one or more of the following standard biological or pharmacological tests, viz., (1) measuring their ability to inhibit the enzyme activity of isolated aldose reductase; (2) measuring their ability to reduce or inhibit sorbitol accumulation in the sciatic nerve and lens of acutely streptozotocinized (i.e., diabetic) rats; (3) measuring their ability to reverse already-elevated sorbitol levels in the sciatic nerve and lens of chronic streptozotocin-induced diabetic rats; (4) measuring their ability to prevent or inhibit galactitol formation in the lens of acutely galactosemic rats, and (5) measuring their ability to delay cataract formation and reduce the severity of lens opacities in chronic galactosemic rats.
(§2) The following spiro-3-heteroazolone compounds of Examples 4A, 4B, 6 and 10A, respectively, were tested for their ability to reduce or inhibit sorbitol accumulation in the sciatic nerve and lens of streptozotocinized (i.e., diabetic) rats by the procedure essentially described in U.S. Pat. No. 3,821,383. In the present study, the amount of sorbitol accumulation in the sciatic nerve and lens of each test animal was measured 27 hours after induction of diabetes. […]

Experiment [2] has as its system sorbitol accumulation in the sciatic nerve. Nature of the experiment: inhibition of sorbitol accumulation in the sciatic nerve of streptozotocinized (diabetic) rats. It counts as in vivo, rat. The following applies: oral, 0.1-10.0 mg./kg., in words. The protocol: as §1, §2

In the case of `C[C@@H]1C[C@]2(NC(=O)NC2=O)c2cc(Cl)cnc2O1` [Example 10A, (4'S)(2'R)-6'-chloro-2',3'-dihydro-2'-methyl-spiro-[imidazolidine-4,4'-4'H-pyrano[2,3-b]pyridine]-2,5-dione], the “inhibit the formation of sorbitol levels in the lens” value in experiment [1] is listed as “to a significantly high degree”. Also, in experiment [2], the “inhibit the formation of sorbitol levels in the sciatic nerve” value is given as “to a significantly high degree”.
